Test results: PMC7408547, “Bivalent Inhibitor with Selectivity for Trimeric MMP-9 Amplifies Neutrophil Chemotaxis and Enables Functional Studies on MMP-9 Proteoforms” (Cells, 2020)
Entries after “also recorded” stand apart in the source; their conditions may differ.

Assays:
C57BL/6 mice [1] = assay: Mouse endotoxemia model; format: in vivo; details: for levels of MMP-9 in plasma and lungs (Western blot): 5 h after LPS/compound administration
Experimental: Endotoxemia was induced in 8-week old C57BL/6 mice by intraperitoneal (i.p.) injection of lipopolysaccharides (LPS) (Escherichia coli 0111:B4, cat. no. 4391, Sigma-Aldrich, St. Louis, MO, USA ) at 10 mg/kg. Control mice were injected with an equal volume of vehicle (pyrogen-free phosphate-buffered saline). A volume of 500 µl compound 5 or 7, diluted in PBS with 2% DMSO (2 mg/mL), was injected i.p. at the same time as the LPS injection (± 50 mg/kg). […] After induction of endotoxemia, progression of the disease was monitored by hourly evaluation of mouse body temperature (rectal probe) and disease scoring by use of the mouse sepsis score (MSS) as described. When the MSS score was above 21, humane endpoints were reached and mice were sacrificed. Blood was collected by cardiac puncture with a heparin-coated needle and syringe, and immediately processed by centrifugation (2000× g for 10 min at 4 °C). The supernatant (plasma) was collected and stored for further analysis. Mice were dissected and organs were stored for further analysis. Bone marrow cells were collected from femora by flushing the medullary cavity with PBS and after centrifugation the cell pellet was immediately processed for downstream analysis. All procedures were conducted in accordance with protocols approved by the local ethics committee (project number P128/2019, KU Leuven, Belgium).
Tissues were homogenized and proteins extracted with a Precellys lysing kit (Bertin Technologies, Rockville, MD, USA). Briefly, tissues were placed in hard tissue homogenizing CK28 tubes (Bertin Technologies, Rockville, MD, USA). Then, 600 µL of RIPA buffer was added to all tubes and homogenization was done using the Precellys®24 (Bertin Technologies, Rockville, MD, USA). To precipitate all tissue debris, the tubes were centrifuged at 20,800× g and 4 °C for 15 min. Supernatant, containing soluble proteins, was collected and used for further analysis. Total protein content of all samples was determined by using a standard Bradford assay (Bio-Rad, Hercules, CA, USA). […] Proteins were transferred to PVDF membranes using the Trans-Blot Turbo Transfer System with associated materials and protocols (Biorad, Hercules, CA, USA). Next, membranes were blocked for 1 h in 5% BSA with TBST buffer (150 mM NaCl, 0.1% Tween 20, 50 mM Tris, pH 7.5). Membranes were incubated overnight with anti-MMP-9 (AF909, R & D systems, Minneapolis, MO, USA) or anti-tubulin (MA5-16308-HRP, Invitrogen, Carlsbad, CA, USA) antibodies. After washing, the blot was incubated with peroxidase-conjugated anti-goat IgG (PI-9500, Vector Labs, Burlingame, CA, USA) or anti-mouse IgG (115-035-071, Jackson ImmunoResearch, PA, USA) for 1 h at room temperature. […]

C57BL/6 mice [2] = assay: Mouse air pouch model of in vivo chemotaxis towards LPS; details: for total amount of white blood cells recruited to the pouches: compound 5 µg with LPS 2 µg, 4 h after injection
Experimental: Air pouches were established by injecting C57BL/6 mice on dorsal sites with 3 mL filtered air (0.20 μm filter) on days 0 and 3. On day 6, test samples were injected in a total volume of 1 mL and at the indicated amount. After 4 h, mice were euthanized and the exudates of the pouches were collected after injection of 1 mL pyrogen-free PBS containing 20 U/mL heparin and 2% KnockOut™ Serum Replacement (Gibco, Waltham, MA, USA), and followed by 30 sec of gentle massage. This procedure was repeated twice with 2 mL buffer. Next, the pouch fluid was centrifuged (10 min, 500× g) and supernatant and cell pellets were separated for further analysis. Data were collected during three independent experiments with 3–4 mice per group. All procedures were conducted in accordance with protocols approved by the local Ethics Committee (License number P033/2018, Belgium).
For microscopic evaluation of cells derived from air pouches, 75 × 10^3 cells were deposited evenly onto a glass slide by centrifugation using a Shandon Cytospin 2 apparatus (Thermo Shandon, Pittsburgh, PA, USA). Next, the preparations were stained with Hemacolor (Merck Chemicals, Darmstadt, Germany). Cells were divided into 4 categories; neutrophils, monocytes/macrophages, lymphocytes and other cells. For each condition, three times 100 cells were counted and the average was used as a final value.
Approximately 10^6 cells were incubated for 15 min with the Fc-receptor-blocking antibodies anti-CD16/anti-CD32 (BD Biosciences Pharmingen, San Diego, CA, USA) and with a Zombie Aqua™ viability dye (BioLegend, San Diego, CA, USA). […] Cells were analyzed on a BD LSR Fortessa X20 with DIVA software (BD, Franklin Lakes, NJ, USA, v9.0). Results were further analyzed with the FlowJo software (BD, Franklin Lakes, NJ, USA, v10.0). […]

[3] = 10 mg/kg LPS i.p. and ± 50 mg/kg compound i.p. simultaneously, hourly

## CC(C)[C@H](C(=O)O)N(CCNC(=O)c1cccc(C(=O)NCCN([C@@H](C(=O)O)C(C)C)S(=O)(=O)c2ccc(-c3ccccc3)cc2)c1)S(=O)(=O)c1ccc(-c2ccccc2)cc1 [Compound 7]
C57BL/6 mice [1]; [3]
  disease score (mouse sepsis score, MSS): (although not significant) increase in disease score; also recorded: did not alter disease scores compared to compound 5
  mouse body temperature: early and significant drop in mouse body temperature
C57BL/6 mice [1]
  levels of MMP-9 in plasma and lungs (Western blot): further induce the presence of MMP-9; also recorded: increased
C57BL/6 mice [1]; listed as bivalent inhibitor
  levels of MMP-9 in plasma and lungs (Western blot): significantly increased levels of MMP-9 in plasma and lungs
C57BL/6 mice [2]; air pouch, 4 h
  neutrophil migration towards E. coli-derived LPS: increases neutrophil migration
C57BL/6 mice [2]
  total amount of white blood cells recruited to the pouches: significant increase compared to LPS alone
C57BL/6 mice [2]; listed as bivalent inhibitor
  total amount of white blood cells recruited to the pouches: amplified leukocyte influxes
